Measured values reported in patent publication US20250179066A1, “ZWITTERIONIC ANTIBACTERIAL COMPOUNDS” (Hoffmann-La Roche Inc., priority 2022, published 2025).
Counter-ions that a name gives are not always drawn.

These compounds were tested on Acinetobacter baumannii ATCC17961 (assay: Antimicrobial susceptibility testing: 90% growth inhibitory concentration (IC90) determination). Conditions: 90% growth inhibitory concentration against Acinetobacter baumannii ATCC17961, Iso-Sensitest broth, OD 600 nm over 16 h; read-out: ATCC 17961 IC90.
Format: cell-based
Summary of the method: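 Twofold serial dilutions (e.g. 10 to 0.0195 μM final) in Iso-Sensitest broth inoculated at ~5×10^5 CFU/mL, incubated at 35±2° C. OD600 read every minute for 16 h; IC90 is the concentration inhibiting 90% of growth during logarithmic phase.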

SMILES | IC90
Cn1c(-c2cn(-c3ccc(N)cc3F)nc2C(F)(F)F)cnc1C(=O)Nc1ccc(C(=O)N2CCN(C(=O)OCC[N+](CCCN)(CCCN)CC(=O)O)CC2)c(Cl)c1 [Example 130, 2-[4-[4-[[5-[1-(4-amino-2-fluoro-phenyl)-3-(trifluoromethyl)pyrazol-4-yl]-1-methyl-imidazole-2-carbonyl]amino]-2-chloro-benzoyl]piperazine-1-carbonyl]oxyethyl-bis(3-aminopropyl)-(carboxymethyl)ammonium; formate] | 252 nM

Same assay, conditions: Acinetobacter baumannii, ATCC17961, 16 h, 90% growth inhibitory concentration against Acinetobacter baumannii ATCC17961, Iso-Sensitest broth, OD 600 nm over 16 h; read-out: ATCC 17961 IC90

SMILES | IC90
Cn1c(-c2cn(-c3cc4[nH]c(C(=O)NO)cc4cn3)nc2C(F)(F)F)cnc1C(=O)Nc1ccc(C(=O)N2CCN(C(=O)[C@H]3CC[N@+](CC(=O)O)(CC4CNC4)CC3)CC2)c(Cl)c1 [Example 125, cis-2-[1-(azetidin-3-ylmethyl)-4-[4-[2-chloro-4-[[5-[1-[2-(hydroxycarbamoyl)-1H-pyrrolo[3,2-c]pyridin-6-yl]-3-(trifluoromethyl)pyrazol-4-yl]-1-methyl-imidazole-2-carbonyl]amino]benzoyl]piperazine-1-carbonyl]piperidin-1-ium-1-yl]acetic acid. 1:1 2,2,2-trifluoroacetate] | 361 nM
Cn1c(-c2cn(-c3ccc(NCCOC(F)F)cc3F)nc2C(F)(F)F)cnc1C(=O)Nc1ccc(C(=O)N2CCN(C(=O)[C@H]3CC[N@+](CC(=O)O)(CC4CNC4)CC3)CC2)c(Cl)c1 [Example 126, cis-2-[1-(azetidin-3-ylmethyl)-4-[4-[2-chloro-4-[[5-[1-[4-[2-(difluoromethoxy)ethylamino]-2-fluoro-phenyl]-3-(trifluoromethyl)pyrazol-4-yl]-1-methyl-imidazole-2-carbonyl]amino]benzoyl]piperazine-1-carbonyl]piperidin-1-ium-1-yl]acetic acid;formate] | 176 nM
Cc1cc(NC(=O)c2ncc(-c3cn(-c4ccc5[nH]c(CCO)cc5n4)nc3C(F)(F)F)n2C)ccc1C(=O)N1CCN(C(=O)[C@H]2CC[N@@+](CCCN)(CC(=O)O)CC2)CC1 [Example 127, cis-2-[1-(3-aminopropyl)-4-[4-[4-[[5-[1-[2-(2-hydroxyethyl)-1H-pyrrolo[3,2-b]pyridin-5-yl]-3-(trifluoromethyl)pyrazol-4-yl]-1-methyl-imidazole-2-carbonyl]amino]-2-methyl-benzoyl]piperazine-1-carbonyl]piperidin-1-ium-1-yl]acetic acid. 1:1 2,2,2-trifluoroacetate] | 364 nM
Cn1c(-c2cn(-c3ccc4[nH]c(CCN)cc4n3)nc2C(F)(F)F)cnc1C(=O)Nc1ccc(C(=O)N2CCN(C(=O)[C@H]3CC[N@+](CC(=O)O)(CC4CNC4)CC3)CC2)c(Cl)c1 [Example 129, cis-2-[4-[4-[4-[[5-[1-[2-(2-aminoethyl)-1H-pyrrolo[3,2-b]pyridin-5-yl]-3-(trifluoromethyl)pyrazol-4-yl]-1-methyl-imidazole-2-carbonyl]amino]-2-chloro-benzoyl]piperazine-1-carbonyl]-1-(azetidin-3-ylmethyl)piperidin-1-ium-1-yl]acetic acid; chloride] | 355 nM
Cn1c(-c2cn(-c3ccc(O)cc3F)nc2C(F)(F)F)cnc1C(=O)Nc1ccc(C(=O)N2CCN(C(=O)[C@H]3CC[N@@+](CCCN)(CC(=O)O)CC3)CC2)c(F)c1 [Example 131, cis-2-[1-(3-aminopropyl)-4-[4-[2-fluoro-4-[[5-[1-(2-fluoro-4-hydroxy-phenyl)-3-(trifluoromethyl)pyrazol-4-yl]-1-methyl-imidazole-2-carbonyl]amino]benzoyl]piperazine-1-carbonyl]piperidin-1-ium-1-yl]acetic acid;formate] | 103 nM

Now from value to compound:

IC90 | SMILES
139 nM | Cc1cc(NC(=O)c2ncc(-c3cn(-c4ccc5[nH]ccc5n4)nc3C(F)(F)F)n2C)ccc1C(=O)N1CCN(C(=O)[C@H]2CC[N@+](CC(=O)O)(CC3CNC3)CC2)CC1 [Example 132, cis-2-[1-(azetidin-3-ylmethyl)-4-[4-[2-methyl-4-[[1-methyl-5-[1-(1H-pyrrolo[3,2-b]pyridin-5-yl)-3-(trifluoromethyl)pyrazol-4-yl]imidazole-2-carbonyl]amino]benzoyl]piperazine-1-carbonyl]piperidin-1-ium-1-yl]acetic acid. 1:1 2,2,2-trifluoroacetate]
146 nM | Cn1c(-c2cn(-c3ccc4[nH]ccc4n3)nc2C(F)(F)F)cnc1C(=O)Nc1ccc(C(=O)N2CCN(C(=O)[C@H]3CC[N@+](CC(=O)O)(CC4CNC4)CC3)CC2)c(F)c1 [Example 133, cis-2-[1-(azetidin-3-ylmethyl)-4-[4-[2-fluoro-4-[[1-methyl-5-[1-(1H-pyrrolo[3,2-b]pyridin-5-yl)-3-(trifluoromethyl)pyrazol-4-yl]imidazole-2-carbonyl]amino]benzoyl]piperazine-1-carbonyl]piperidin-1-ium-1-yl]acetic acid. 1:1 2,2,2-trifluoroacetate]
327 nM | Cn1c(-c2cn(-c3ccc4[nH]c(CO)cc4n3)nc2C(F)(F)F)cnc1C(=O)Nc1ccc(C(=O)N2CCC(C(=O)N3CC[N+](CCCN)(CC(=O)O)CC3)CC2)c(Cl)c1 [Example 134, 2-[1-(3-aminopropyl)-4-[1-[2-chloro-4-[[1-methyl-5-[1-(2-methylol-1H-pyrrolo[3,2-b]pyridin-5-yl)-3-(trifluoromethyl)pyrazol-4-yl]imidazole-2-carbonyl]amino]benzoyl]isonipecotoyl]piperazin-1-ium-1-yl]acetic acid. 1:1 2,2,2-trifluoroacetate]
393 nM | Cn1c(-c2cn(-c3ccc(N)cc3F)nc2C(F)(F)F)cnc1C(=O)Nc1ccc(C(=O)N2CCC(C(=O)N3CC[N+](CCCN)(CC(=O)O)CC3)CC2)c(Cl)c1 [Example 135, 2-[4-[1-[4-[[5-[1-(4-amino-2-fluoro-phenyl)-3-(trifluoromethyl)pyrazol-4-yl]-1-methyl-imidazole-2-carbonyl]amino]-2-chloro-benzoyl]isonipecotoyl]-1-(3-aminopropyl)piperazin-1-ium-1-yl]acetic acid. 1:1 2,2,2-trifluoroacetate]
173 nM | Cn1c(-c2cn(-c3ccc(O)cc3F)nc2C(F)(F)F)cnc1C(=O)Nc1ccc(C(=O)N2CCN(C(=O)[C@H]3CC[N@+](CC(=O)O)(CC4CNC4)CC3)CC2)c(F)c1 [Example 136, cis-2-[1-(azetidin-3-ylmethyl)-4-[4-[2-fluoro-4-[[5-[1-(2-fluoro-4-hydroxy-phenyl)-3-(trifluoromethyl)pyrazol-4-yl]-1-methyl-imidazole-2-carbonyl]amino]benzoyl]piperazine-1-carbonyl]piperidin-1-ium-1-yl]acetic acid;formate]
334 nM | Cn1c(-c2cn(-c3ccc(NC[C@H](O)CO)cc3F)nc2C(F)(F)F)cnc1C(=O)Nc1ccc(C(=O)N2CCN(C(=O)[C@H]3CC[N@+](CC(=O)O)(CC4CNC4)CC3)CC2)c(Cl)c1 [Example 137, cis-2-[1-(azetidin-3-ylmethyl)-4-[4-[2-chloro-4-[[5-[1-[4-[[(2S)-2,3-dihydroxypropyl]amino]-2-fluoro-phenyl]-3-(trifluoromethyl)pyrazol-4-yl]-1-methyl-imidazole-2-carbonyl]amino]benzoyl]piperazine-1-carbonyl]piperidin-1-ium-1-yl]acetic acid;formate]
